± gives the expanded uncertainty stated by the source.

A short description of one data set: refractive index (Na D-line) (dimensionless). To be noted: 298.15 K; 101.33 kPa; Liquid; Standard Abbe refractometry.
In the case of `C1CCCCCCC1` [cyclooctane], the refractive index is listed as 1.45598 ± 0.0007.

On to `c1ccccc1` [benzene], for which the refractive index stood at 1.49774 ± 0.00068.

With `CC1CCCCC1` [methylcyclohexane], the refractive index came to 1.42062 ± 0.00068.

As to `C1CCCCC1` [cyclohexane], the refractive index was determined as 1.4236 ± 0.00068.

Take `CCOS(=O)(=O)[O-].CCn1cc[n+](C)c1` [1-ethyl-3-methylimidazolium ethyl sulfate]: the refractive index turned out to be 1.4791 ± 0.0007.

Assay in another data set: not given
The settings on record: 298.15 K; 101.33 kPa; Liquid.
Take `C1CCCCCCC1` [cyclooctane]: the mass density turned out to be 831.47 ± 0.73 kg/m3.

As to `c1ccccc1` [benzene], the mass density was found to be 873.57 ± 0.17 kg/m3.

Turning to `CC1CCCCC1` [methylcyclohexane], the mass density is given as 765.02 ± 0.25 kg/m3.

For the compound `C1CCCCC1` [cyclohexane], the mass density is on record as 773.8 ± 0.25 kg/m3.

Regarding `CCOS(=O)(=O)[O-].CCn1cc[n+](C)c1` [1-ethyl-3-methylimidazolium ethyl sulfate], the mass density is given as 1237.23 ± 1.8 kg/m3.

The values are drawn from the NIST ThermoML archive (doi:10.1021/je100508y).
